A word on the IC50: it is the point on the concentration scale where inhibition reaches its midpoint. The low end stands for inhibition by little substance, the high end for a need for much substance.

For one series, the system named is AML12 cells. As to the kind of experiment: Gene expression regulation in liver cells (real-time PCR). The format is cell-based. To be noted: AML12 mouse liver cells, 1 μM alone or with 500 nM T0901317, 18 hours. How it is done:
(§1) In order to verify efficacy of the developed liver-X-receptor antagonist, the function of regulating gene expression was identified in mouse liver cells and human liver cells. In the present experiment, mouse liver cells, AML 12 cells and human liver cells, and HepG2 cells were used. AML12 cells were cultured in DMEM medium within a cell incubator with 5% carbon dioxide at 37° C. The medium contained 10% fetal bovine serum (FBS), 100 U/ml penicillin, and 100 μg/ml streptomycin. On day 1 of the experiment, AML12 cells are seeded in 6 well plates. On day 2, when the cells were grown to 80% confluency, the medium was replaced by the DMEM medium not containing serum, and then three wells per treatment group were treated with TO901317 and the developed liver-X-receptor antagonist. […] The extracted RNAs were quantified, and 1 μg of the extracted RNAs per each sample were used in cDNA synthesis. […] The cDNAs synthesized for the real-time polymerase chain reaction were mixed with primer selective for ACC1 or Actine gene and QuantiTech Master Mix (QIAGEN). […] The Ct values per each treatment group were compared with the Ct values of the negative control group, and the differences in expression amount of genes were calculated. […]

In the next series the test system is HepG2 cells. The description is as above. It counts as cell-based. The conditions noted are these: HepG2 human liver cells. On the procedure:
as §1

A further series relates to C3H/10T1/2 cells. Put plainly: Osteoblast formation activity (calcium deposition assay, Alizarin Red S). The format is cell-based, mouse. How it is done: C3H/10T1/2 cells, which are mouse mesenchymal progenitor cells purchased from ATCC, were diluted in DMEM (Dulbecco's Modified Eagle Medium) medium containing 5.958 g/L HEPES, 3.7 g/L sodium bicarbonate, and 10% FBS (fetal bovine serum), and cultured in 24-well culture plates at a density of 4×10^4 cells/well, in the presence of 5% CO2 at 37° C. for 2 days. The cultured cells were grown to 90˜100% confluency in the culture plates, the cells were cultured in DMEM medium containing 10% FBS, to which 10 mM of β-glycerophosphate and 50μ/ml of ascorbic acid were added, in the presence of 5% CO2 at 37° C. for 6 days, to induce differentiation into osteoblast. The medium was exchanged every other day during differentiation. The C3H/10T1/2 cell line, in which differentiation into the osteoblast was induced, was washed with PBS (Phosphate Buffered Saline) once, and fixed with 70% ethanol at 20° C. for 1 hour. The cells after fixing were washed with cold PBS three times, and stained with 40 mM Alizarin Red S dye solution at room temperature for 20 minutes. The dye solution was removed and the cells were washed with distilled water three times in order to selectively observe only the cells differentiated into the osteoblast.
An aliquot 116V and an aliquot 116VI extracted and partitioned from sponges are dissolved in a DMSO solvent, and used to treat the C3H/10T1/2 cell line, mesenchymal progenitor cells, at concentrations of 1, 2.5, 5, 10, and 20 ug/ml. […] Since then, the same experiment was performed on the compound (1163), the compound 2 (1162), the compound 3 (1161), and the compound 4 (1164), which were purely separated from the aliquots 116V and 116VI, and as a result, it could be confirmed that the osteoblast differentiation ability was increased in the compounds 1, 3, and 4. […] To study a mechanism with respect to osteoblast differentiation ability, the C3H/10T1/2 cell lines were treated with the compound 1 and the compound 4 for 6 days, respectively. […] Also, the C3H/10T1/2 cell lines were treated with the compound 1 and the compound 4 for 6 days, respectively. […] Furthermore, it could be ascertained that combining of Runx2 and TAZ proteins was increased by treatment of the compounds and thus the activity of Runx2-meditated transcription was increased. The compound 5, which is an ester derivative of the compound 1 (1163), was synthesized in order to prepare a material having more excellent bioactivity, and the structure of the compound 5 obtained thus was determined. […] Therefore, the compounds of the present invention and derivatives thereof are expected to promote the differentiation of the osteoblast and thus play an innovative role in treatment of osteoporosis.

Series [1] can be described thus: Cytotoxicity, Cell Titer-Glo cell viability. The format is cell-based, mouse. The conditions noted are these: primary mouse spleen cells; mouse spleen cells, 16-18 hours. On the procedure:
(§2) Spleen cells of a mouse were used in measurement of cytotoxicity in […] cells. The spleen cells of the mouse were prepared as follows. The spleen from a 5˜6-week age mouse was finely minced, and only floating spleen cells were filtered through a net having a pore size of 100 μm. Erythrocytes mixed with the spleen cells were lysed by using erythrocyte lysis buffer, and then removed by centrifugation, precipitation and washing of the cells. The prepared spleen cells were seeded in 96-well plates at a concentration of 5×10^5 cells/well. Here, the spleen cells were treated with the compound of Formula 1 for measurement of toxicity according to the concentrations. The next day, the cells cultured for 16-18 hours were treated with Cell Titer-Glo Luminescent Cell Viability Assay (Promega), and after 10 minutes, cell viability was measured using the luminometer.
In general terms: Cellular ATP, detected with luciferase, serves as a proxy for viable cell number.

The next series concerns mouse spleen cells. Put plainly: Cytotoxicity, Cell Titer-Glo cell viability. The format is cell-based. To be noted: mouse spleen cells vs LXR. How it is done:
as §2

In another series the test system is 3T3-L1 cells. As to the kind of experiment: Adipocyte differentiation inhibitory ability in 3T3-L1 cells. The format is cell-based.

Take `CC(C)=CCC/C(C)=C/[C@H]1CC(C)=C[C@@]2(C=C(CO)[C@@H]3CC(=O)C(C)=C[C@@H]3O2)O1` [Compound 1]: the “expression of fatty acid biosynthesis genes SREBP1c, ACC, and FAS” value in the series on AML12 cells and with HepG2 cells was “inhibited the expression” each time. Also, the “osteoblast differentiation ability, concentration dependence” value in the series with C3H/10T1/2 cells (C3H/10T1/2, 1, 2.5, 5, 10, and 20 ug/ml, 6 days) is given as “remarkably increased at the concentrations of up to 10 ug/ml in a concentration-dependent manner”. Also, the osteoblast differentiation ability result with C3H/10T1/2 cells (C3H/10T1/2, calcium deposition) is on record as “increased”. Moreover, the “concentration at which cytotoxicity was observed” value with C3H/10T1/2 cells (C3H/10T1/2 during osteoblast differentiation) stood at 20000 ng/mL. In addition, inhibition in series [1] was half-maximal at 63 µM (IC50). Also, the “cytotoxicity IC50 compared with antagonistic concentration against LXR” value with mouse spleen cells was at least 1000 times. In addition, the “adipocyte differentiation inhibitory ability” value in the series with 3T3-L1 cells was “very superior adipocyte differentiation inhibitory ability”.
